Measured values published in the supplement of paper PMC7017272.
± gives the standard deviation of the averaged measurements.

What was measured:
Settings in all cases: treatment time: 3 days
UT-SCC-42A [1] = test: relative IC50 (midpoint of the fitted curve; maximal inhibition may be below 50%); higher = less potent
In short: (§1)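 Viability was read with CellTiter-Glo 2.0 luminescence and scaled against vehicle (0.1% DMSO) and cell-killing control wells. The assay used HPV-negative HNSCC cell lines at 500 cells/well in 384-well plates, grown on plastic, on Matrigel or Myogel coatings (500 µg/mL), or embedded in Matrigel or Myogel plus rat collagen I, and treated for 3 days at five 10-fold concentrations. IC50, maximal inhibition and drug sensitivity score were derived from percent-inhibition dose–response curves fitted in the FIMM pipeline.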

UT-SCC-44 [2] = test: as above
In short: as §1

UT-SCC-73 [3] = test: as above
In short: as §1

UT-SCC-42B [4] = test: as above
In short: as §1

UT-SCC-14 [5] = test: as above
In short: as §1

UT-SCC-106A [6] = test: as above
In short: as §1

UT-SCC-24A [7] = test: maximal % inhibition of viability relative to DMSO; higher = stronger effect
Protocol: (§2)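 HNSCC cell lines (500 cells/well, 384-well) were cultured on plastic, on top of (2D) or embedded (3D) in Matrigel or human leiomyoma matrix Myogel (500 ug/mL; Myogel 3D mixed with rat collagen I). Cells were treated for 3 days with 5 ten-fold concentrations of each drug, and viability was read by CellTiter-Glo. Viability was normalised to DMSO (0% inhibition) and 100 uM benzethonium chloride (100% inhibition) controls and fitted with the FIMM DSRT pipeline to give IC50 (nM), maximal % inhibition and the drug sensitivity score (DSS). Suffixes _1/_2/_3 on drug names are replicates.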

UT-SCC-24A [8] = test: relative IC50 (midpoint of the fitted curve; maximal inhibition may be below 50%); higher = less potent
Protocol: as §2

UT-SCC-28 = test: drug sensitivity score (DSS); higher = more sensitive; extreme values may be limits of the assay
In short: as §1

UT-SCC-8 = test: as above
In short: as §1

UT-SCC-42A [9] = test: as above
In short: as §1

UT-SCC-44 [10] = test: as above
In short: as §1

UT-SCC-73 [11] = test: as above
In short: as §1

UT-SCC-42B [12] = test: as above
In short: as §1

UT-SCC-24B = test: as above
In short: as §1

UT-SCC-40 = test: as above
In short: as §1

UT-SCC-14 [13] = test: as above
In short: as §1

UT-SCC-106A [14] = test: as above
In short: as §1

UT-SCC-81 = test: as above
In short: as §1

[15] = culture condition: embedded in Matrigel
[16] = culture condition: embedded in Myogel + collagen I
[17] = culture condition: on top of Matrigel
[18] = culture condition: plastic 2D (no matrix)
[19] = culture condition: on top of Myogel

Compound: Cn1c(=O)c(F)c(Nc2ccc(I)cc2F)c2c(=O)n(C[C@@H](O)CO)cnc21 [TAK-733]
- relative IC50 (UT-SCC-42A [1]; [15]): 4.26 nM
- relative IC50 (UT-SCC-42A [1]; [16]): 11.3 nM
- relative IC50 (UT-SCC-42A [1]; [17]): 4.67 nM
- relative IC50 (UT-SCC-42A [1]; [18]): 9.23 nM
- relative IC50 (UT-SCC-44 [2]; [15]): 3.37 nM
- relative IC50 (UT-SCC-44 [2]; [16]): 108 nM
- relative IC50 (UT-SCC-44 [2]; [18]): 7.56 nM
- relative IC50 (UT-SCC-73 [3]; [15]): 2.4 nM
- relative IC50 (UT-SCC-73 [3]; [16]): 3.82 nM
- relative IC50 (UT-SCC-73 [3]; [17]): 3.23 nM
- relative IC50 (UT-SCC-73 [3]; [19]): 9.54 nM
- relative IC50 (UT-SCC-73 [3]; [18]): 5.35 nM
- relative IC50 (UT-SCC-42B [4]; [15]): 1.54 nM
- relative IC50 (UT-SCC-42B [4]; [19]): 80.8 nM
- relative IC50 (UT-SCC-14 [5]; [16]): 9.53 nM
- relative IC50 (UT-SCC-14 [5]; [17]): 14.3 nM
- relative IC50 (UT-SCC-14 [5]; [19]): 16.1 nM
- relative IC50 (UT-SCC-106A [6]; [15]): 2.16 nM
- relative IC50 (UT-SCC-106A [6]; [17]): 2.3 nM
- relative IC50 (UT-SCC-106A [6]; [18]): 2.3 nM
- maximal % inhibition of viability (UT-SCC-24A [7]; [15]): 81.5 ± 1.9%
- maximal % inhibition of viability (UT-SCC-24A [7]; [16]): 53.9 ± 2.1%
- maximal % inhibition of viability (UT-SCC-24A [7]; [17]): 77.7 ± 1.1%
- maximal % inhibition of viability (UT-SCC-24A [7]; [19]): 45.9 ± 4%
- maximal % inhibition of viability (UT-SCC-24A [7]; [18]): 70.6 ± 1.3%
- relative IC50 (UT-SCC-24A [8]; [17]): 1.23 nM
- relative IC50 (UT-SCC-24A [8]; [18]): 1.21 nM
- drug sensitivity score (UT-SCC-28; [15]): 9.3 ± 2.7 DSS
- drug sensitivity score (UT-SCC-28; [16]): 0.8 ± 1.4 DSS
- drug sensitivity score (UT-SCC-28; [17]): 10.8 ± 2.5 DSS
- drug sensitivity score (UT-SCC-28; [18]): 5 ± 1.4 DSS
- drug sensitivity score (UT-SCC-8; [15]): 13.6 ± 2.6 DSS
- drug sensitivity score (UT-SCC-8; [16]): 2.3 ± 2.6 DSS
- drug sensitivity score (UT-SCC-8; [17]): 8.03 ± 4.5 DSS
- drug sensitivity score (UT-SCC-8; [19]): 7.53 ± 4.9 DSS
- drug sensitivity score (UT-SCC-8; [18]): 7.07 ± 2.1 DSS
- drug sensitivity score (UT-SCC-42A [9]; [15]): 16.7 ± 2 DSS
- drug sensitivity score (UT-SCC-42A [9]; [16]): 8.73 ± 7.5 DSS
- drug sensitivity score (UT-SCC-42A [9]; [17]): 16 ± 1.3 DSS
- drug sensitivity score (UT-SCC-42A [9]; [19]): 9.63 ± 2.4 DSS
- drug sensitivity score (UT-SCC-42A [9]; [18]): 11.4 ± 1.6 DSS
- drug sensitivity score (UT-SCC-44 [10]; [15]): 21.6 ± 1.5 DSS
- drug sensitivity score (UT-SCC-44 [10]; [16]): 3.67 ± 1.4 DSS
- drug sensitivity score (UT-SCC-44 [10]; [17]): 14.8 ± 1.2 DSS
- drug sensitivity score (UT-SCC-44 [10]; [19]): 5.27 ± 2.8 DSS
- drug sensitivity score (UT-SCC-44 [10]; [18]): 12.9 ± 0.4 DSS
- drug sensitivity score (UT-SCC-73 [11]; [15]): 24.7 ± 0.5 DSS
- drug sensitivity score (UT-SCC-73 [11]; [16]): 13.8 ± 6 DSS
- drug sensitivity score (UT-SCC-73 [11]; [17]): 21.4 ± 1.6 DSS
- drug sensitivity score (UT-SCC-73 [11]; [19]): 12.9 ± 0.38 DSS
- drug sensitivity score (UT-SCC-73 [11]; [18]): 17.5 ± 1.3 DSS
- drug sensitivity score (UT-SCC-42B [12]; [15]): 24.1 ± 2.8 DSS
- drug sensitivity score (UT-SCC-42B [12]; [17]): 12.4 ± 1.9 DSS
- drug sensitivity score (UT-SCC-42B [12]; [19]): 2.6 ± 0.1 DSS
- drug sensitivity score (UT-SCC-42B [12]; [18]): 6.27 ± 1.4 DSS
- drug sensitivity score (UT-SCC-24B; [15]): 9.43 ± 5.1 DSS
- drug sensitivity score (UT-SCC-24B; [16]): 8.77 ± 1.4 DSS
- drug sensitivity score (UT-SCC-24B; [17]): 10 ± 1.8 DSS
- drug sensitivity score (UT-SCC-24B; [19]): 5.97 ± 2.3 DSS
- drug sensitivity score (UT-SCC-24B; [18]): 13 ± 6 DSS
- drug sensitivity score (UT-SCC-40; [15]): 24 ± 0.56 DSS
- drug sensitivity score (UT-SCC-40; [16]): 16.2 ± 2.5 DSS
- drug sensitivity score (UT-SCC-40; [17]): 20.2 ± 1.5 DSS
- drug sensitivity score (UT-SCC-40; [19]): 10 ± 0.56 DSS
- drug sensitivity score (UT-SCC-40; [18]): 11.6 ± 1.3 DSS
- drug sensitivity score (UT-SCC-14 [13]; [15]): 11.2 ± 3.2 DSS
- drug sensitivity score (UT-SCC-14 [13]; [16]): 7.5 ± 1.5 DSS
- drug sensitivity score (UT-SCC-14 [13]; [17]): 7.13 ± 0.64 DSS
- drug sensitivity score (UT-SCC-14 [13]; [19]): 5 ± 0.98 DSS
- drug sensitivity score (UT-SCC-14 [13]; [18]): 2.67 ± 3 DSS
- drug sensitivity score (UT-SCC-106A [14]; [15]): 16.8 ± 1.1 DSS
- drug sensitivity score (UT-SCC-106A [14]; [16]): 1.2 ± 0.56 DSS
- drug sensitivity score (UT-SCC-106A [14]; [17]): 18.7 ± 0.38 DSS
- drug sensitivity score (UT-SCC-106A [14]; [19]): 1.07 ± 1.1 DSS
- drug sensitivity score (UT-SCC-106A [14]; [18]): 19 ± 1.2 DSS
- drug sensitivity score (UT-SCC-81; [15]): 28.8 ± 3.6 DSS
- drug sensitivity score (UT-SCC-81; [16]): 3.93 ± 2.7 DSS
- drug sensitivity score (UT-SCC-81; [17]): 19.6 ± 1.2 DSS
- drug sensitivity score (UT-SCC-81; [19]): 2.63 ± 2.3 DSS
- drug sensitivity score (UT-SCC-81; [18]): 2.9 ± 0.17 DSS
